Experimental data as given in PMC6010013, “Synthesis, physiochemical property and antimicrobial activity of novel quaternary ammonium salts” (Journal of Enzyme Inhibition and Medicinal Chemistry, 2017).

How the values were obtained:
Format in all cases: cell-based
P. aeruginosa = experiment: MBC, agar plating of dilutions without growth; details: Pseudomonas aeruginosa, 99.9% bactericidal, read-out: Minimal bactericidal concentration (MBC)
Excerpt: (§1) In this paper, antimicrobial activities of 24 QASs were detected by quantitative tests. […] Benzalkonium chloride (BZK) and chlorhexidine acetate (CA) was selected as positive controls. Representative compound POT-C12QAS (2) which synthesised and evaluated in previous work was also taken as a reference compound in MIC, MBC and cytotoxicity tests. […]
(§2) agriculture were used as target pathogens in this study, including three strains of Gram-positive bacteria (S. Aureus, α-H-tococcus, β-H-tococcus), three strains of Gram-negative bacteria (E. coli, P. aeruginosa, Proteus vulgaris) and four strains of fungi (Canidia albicans, Cytospora mandshurica, Physalospora piricola, Aspergillus niger). The antimicrobial tests were assayed, according to standard CLSI methods for antimicrobial dilution susceptibility tests to measure the minimum inhibitory concentration (MIC) and minimum bactericidal concentration (MBC)2.
(§3) A broth tube dilution method was followed to determine the MIC values for all the screened compounds against the micro-organisms, and for comparison benzalkonium chloride (BZK) and chlorhexidine acetate (CA) was used as a reference. For sample preparation, each of the test compounds and reference were dissolved in DMSO or sterile water at a concentration of 1600 μg/mL, and further dilutions of the compounds and reference in culture medium MHB (Muller-Hinton Broth) were prepared at the required quantities of 400, 200, 100 etc., down to 0.39 μg/mL. Bacterial strains and fungal strains were maintained on MHA (Muller-Hinton Agar) medium at 37℃ or 28 ℃ for 12 h or 72h, respectively. The microbial inocula were prepared by suspension in 10 mL of culture medium for colonies from culture on MHA. The cell density of each inoculum was adjusted in culture medium of a 0.5 McFarland standard (1-2×10^8 CFU/mL). The final amount applied was 10^5 CFU/mL for bacteria and fungi. The microbial inocula were added to the twofold diluted samples. One growth control tube was prepared […] the addition of the compound and one blank tube was prepared without the addition of the microorganism. MIC values were read after incubation at 37℃ or 28 ℃ for bacterial and fungal strains, respectively. After 12 h or 72h, the last tube with no growth of micro-organisms was recorded to represent the MIC value expressed in μg/ml. All experiments were carried out three times. […]
(§4) was placed on agar plates in triplicate, and incubated at 37℃ or 28 ℃ for 12 h or 72h. The number of colonies on each plate was read, and the MBC was determined as the lowest concentration that achieved a 99.9% bactericidal in the agar plate.

Canidia albicans = experiment: MBC, agar plating of dilutions without growth; details: 99.9% bactericidal, read-out: Minimal bactericidal concentration (MBC)
Excerpt: as §1, §2, §3, §4

Physalospora piricola = experiment: MBC, agar plating of dilutions without growth; details: 99.9% bactericidal, read-out: Minimal bactericidal concentration (MBC)
Excerpt: as §1, §2, §3, §4

E. coli = experiment: MBC, agar plating of dilutions without growth; details: Escherichia coli, 99.9% bactericidal, read-out: Minimal bactericidal concentration (MBC)
Excerpt: as §1, §2, §3, §4

Aspergillus niger = experiment: MBC, agar plating of dilutions without growth; details: 99.9% bactericidal, read-out: Minimal bactericidal concentration (MBC)
Excerpt: as §1, §2, §3, §4

Proteus vulgaris = experiment: MBC, agar plating of dilutions without growth; details: 99.9% bactericidal, read-out: Minimal bactericidal concentration (MBC)
Excerpt: as §1, §2, §3, §4

S. aureus = experiment: MBC, agar plating of dilutions without growth; details: Staphylococcus aureus, 99.9% bactericidal, read-out: Minimal bactericidal concentration (MBC)
Excerpt: as §1, §2, §3, §4

α-H-tococcus = experiment: MBC, agar plating of dilutions without growth; details: 99.9% bactericidal, read-out: Minimal bactericidal concentration (MBC)
Excerpt: as §1, §2, §3, §4

Cytospora mandshurica = experiment: MBC, agar plating of dilutions without growth; details: Cytospora, 99.9% bactericidal, read-out: Minimal bactericidal concentration (MBC)
Excerpt: as §1, §2, §3, §4

Haemolysis assay = details: human red blood cells (erythrocyte suspension), 1 h at 37 ℃, read-out: Haemolysis rate; for hemolysis at 1 h, 12.5 μg/mL: 12.50 μg/mL
Description: The surfactant may be absorbed and penetrate to the cell membrane, where it makes osmotic phenomena by altering the permeability of membrane, which in turn causes the cellular lysis. Haemolysis assay gives quantitative estimation about haemoglobin release when red blood cells are treated with QASs. Haemolytic assay of QASs at different concentration was carried out in Table 4. […] For 5a-b, 6a-b, 10a-c, 13a-b, and 16a-d, their safe concentration can more than 100 μg/mL. Compared with BZK and CA, all QASs were safe to be used when they circulated into the blood in low concentration. […]
The human blood from healthy individual was collected in a tube containing heparin, and the blood was centrifuged at 1500 rpm for 3 min. The […] (Erythrocyte) was collected and plasma was discarded and further washed five times with sterile normal saline solution. Then the cells were diluted to 0.2% of their volume with normal saline solution. 2 mL of the diluted red blood cells suspension was mixed with (a) 2 mL of normal salinesolution as a negative control; (b) 2 mL of distilled water as a positive control; (c) 2 mL of QAS solution which were dispersed into normal saline solution at the different concentrations ranging from 3.125 to 400 μg/mL. Then the mixtures were shaken well and incubated for 1 h at 37 ℃. Finally, the mixtures were centrifuged for 5min at 2000 r/min and the absorbances of supernatant at 540 nm was measured by a microplate reader (Multiskan MK3-Thermo Labsystems, USA). The hemolysis ratio was calculated as follows: The hemolysis ratio(%) = (OD Sample−OD Negative)/(OD Positive −OD Negative) ×100%. The hemolysis evaluation of QASs was performed in triplicate and results were expressed as the mean ± SD.

β-H-tococcus = experiment: MBC, agar plating of dilutions without growth; details: 99.9% bactericidal, read-out: Minimal bactericidal concentration (MBC)
Excerpt: as §1, §2
as §3, with “respectively.” for “respectively. After 12 h or 72h, the last tube with no growth of micro-organisms was recorded to represent the MIC value expressed in μg/ml. All experiments were carried out three times.”
as §4

| SMILES | MBC (P. aeruginosa) | MBC (Canidia albicans) | MBC (Physalospora piricola) | MBC (E. coli) | MBC (Aspergillus niger) | MBC (Proteus vulgaris) | MBC (S. aureus) | MBC (α-H-tococcus) | MBC (Cytospora mandshurica) | hemolysis at 1 h, 6.25 μg/mL (Haemolysis assay) | hemolysis at 1 h, 12.5 μg/mL (Haemolysis assay) | hemolysis at 1 h, 25 μg/mL (Haemolysis assay) | hemolysis at 1 h, 50 μg/mL (Haemolysis assay) | hemolysis at 1 h, 100 μg/mL (Haemolysis assay) | hemolysis at 1 h, 200 μg/mL (Haemolysis assay) | hemolysis at 1 h, 400 μg/mL (Haemolysis assay) | MBC (β-H-tococcus) |
| --- | --- | --- | --- | --- | --- | --- | --- | --- | --- | --- | --- | --- | --- | --- | --- | --- | --- |
| C[N+](CCO)(CCO)CCCCCCCCCCSc1nnc(-c2ccc(F)cc2)o1 [Compound 5c] | 50 µg/mL | 25 µg/mL | 6.25 µg/mL | 50 µg/mL | 25 µg/mL | 50 µg/mL | 25 µg/mL | 12.5 µg/mL | 12.5 µg/mL | 0.43 ± 0.16% | 0.75 ± 0.19% | 2.31 ± 0.67% | 4.89 ± 0.53% | 33.1 ± 4.87% | 52.3 ± 6.34% | 67.2 ± 5.89% | 12.5 µg/mL |
| C[N+](CCO)(CCO)CCCCCCCCCCCCSc1nnc(-c2ccccc2)o1 [Compound 2, reference compound] | 25 µg/mL | 12.5 µg/mL | 3.12 µg/mL | 50 µg/mL | 3.12 µg/mL | 50 µg/mL | 12.5 µg/mL | 6.25 µg/mL | 6.25 µg/mL | 0.18 ± 0.05% | 0.42 ± 0.13% | 0.93 ± 0.41% | 4.11 ± 0.89% | 17.1 ± 2.34% | 82.8 ± 3.18% | 90.6 ± 4.23% | 6.25 µg/mL |
| C[N+](CCO)(CCO)CCCCCCCCCCCCSc1nnc(-c2ccc(F)cc2)o1 [Compound 5d] | 50 µg/mL | 12.5 µg/mL | 3.12 µg/mL | 25 µg/mL | 25 µg/mL | 25 µg/mL | 12.5 µg/mL | 12.5 µg/mL | 12.5 µg/mL | 0.49 ± 0.12% | 0.87 ± 0.27% | 2.43 ± 0.82% | 4.81 ± 0.74% | 32.4 ± 6.78% | 66.7 ± 5.21% | 66.9 ± 4.12% | 6.25 µg/mL |
| C[N+](CCO)(CCO)CCCCCCCCCCSc1nnc(-c2ccc(C(F)(F)F)cc2)o1.[Br-] [Compound 6c] | 50 µg/mL | 25 µg/mL | 3.12 µg/mL | 25 µg/mL | 12.5 µg/mL | 25 µg/mL | 25 µg/mL | 12.5 µg/mL | 12.5 µg/mL | 0.57 ± 0.15% | 0.42 ± 0.13% | 0.67 ± 0.13% | 3.56 ± 1.32% | 35.8 ± 5.1% | 82.5 ± 6.12% | 89.4 ± 4.35% | 6.25 µg/mL |
| [H]/N=C(\N/C(=N/[H])NCCCCCCNC(=N)NC(=N)Nc1ccc(Cl)cc1)Nc1ccc(Cl)cc1 [CA, chlorhexidine acetate, reference compound] | 25 µg/mL | 12.5 µg/mL | 3.12 µg/mL | 12.5 µg/mL | 6.25 µg/mL | 12.5 µg/mL | 6.25 µg/mL | 6.25 µg/mL | 6.25 µg/mL | 0.86 ± 0.28% | 2.51 ± 0.87% | 5.29 ± 1.22% | 37 ± 3.78% | 62.2 ± 3.53% | 86 ± 3.82% | 95.7 ± 3.54% | 3.12 µg/mL |
